# Measurements from patent US20210392889A1, “COMPOSITIONS COMPRISING PYRIDINE CARBOXYLATE HERBICIDES WITH PDS INHIBITOR HERBICIDES” (Corteva Agriscience LLC, priority 2018, published 2021).
# Experiments:
# Assay in all cases: Greenhouse postemergence herbicidal effect, visual injury after 20-22 d
# Format in all cases: in vivo
# [1] = tested on: poinsettia (EPHHL, Euphorbia heterophylla)
# Description: (§1) Seeds of the desired test plant species were planted in a 90:10% v/v (volume/volume) mixture of PRO-MIX® BX (Premier Tech Horticulture, Quakertown, Pa., USA) and PROFILE® GREENS GRADE™ (Profile Products LLC, Buffalo Grove, Ill., USA) planting mixture, which typically has a pH of 5.2 to 6.2 and an organic matter content of at least 50 percent, in plastic pots with a surface area of 103.2 square centimeters (cm^2). In some aspects, to ensure good germination and healthy plants, a fungicide treatment and/or other chemical or physical treatment was applied. The plants were grown for 7-36 days (d) in a greenhouse with an approximate 14-hour (h) photoperiod which was maintained at about 23° C. during the day and 22° C. during the night. Nutrients and water were added on a regular basis and supplemental lighting was provided with overhead metal halide 1000-Watt lamps as necessary. The plants were employed for testing when they reached the second or third true leaf stage.
# (§2) Emulsifiable concentrates of each of each pyridine carboxylate herbicide (Compound A or Compound B) were prepared at 100 grams acid equivalent per liter (g ae/L). The emulsifiable concentrates also included a safener, cloquintocet-mexyl, at 120 grams active ingredient per liter (g ai/L). An aliquot of each emulsifiable concentrate was placed in a 25 mL glass vial and diluted with an aqueous mixture of 1.25% (v/v) ACTIROB® B esterified rapeseed oil (Bayer Crop Science, Research Triangle Park, N.C., USA) or MSO® Concentrate with LECI-TECH® methylated soybean oil (Loveland Products, Loveland, Colo., USA) to obtain concentrated stock solutions at the highest application rate for each herbicide, based upon a 12 milliliter (mL) application volume at a rate of 187 liters per hectare (L/ha). The concentrated stock solutions were further diluted with an aqueous mixture of 1.25% v/v ACTIROB® B or MSO® Concentrate with LECI-TECH® to obtain stock solutions at reduced application rates for each herbicide. Spray solutions of the herbicide combinations (Compound A or Compound B plus PDS inhibitor herbicide) were prepared by adding weighed amounts or aliquots of the PDS inhibitor herbicide to the stock solutions of Compound A or Compound B to form 12-mL spray solutions in two- or three-way combinations.
# (§3) The spray solutions were applied to the plant material with an overhead Mandel track sprayer equipped with 8002E nozzles calibrated to deliver 187 L/ha over an application area of 0.503 square meters (m^2) at a spray height of 18 inches ([…] centimeters (cm)) above the average plant canopy. Control plants were sprayed in the same manner with the solvent blank. All pyridine carboxylate herbicide (component a) application rates are given as “g ae/ha” and all PDS inhibitor herbicide (component b) application rates are given as “g ai/ha.”
# (§4) The treated plants and control plants were placed in a greenhouse as described above and watered by sub-irrigation to prevent wash-off of the test compounds. After 20-22 d, the condition of the test plants as compared with that of the control plants was determined visually and scored on a scale of 0 to 100 percent where 0 corresponds to no injury and 100 corresponds to complete kill.
# [2] = tested on: wild mustard (SINAR, Sinapis arvensis); details: for visual injury: Table 1
# Description: as §1, §2, §3, §4
# [3] = tested on: velvetleaf (ABUTH, Abutilon theophrasti)
# Description: as §1, §2, §3, §4
# [4] = tested on: Russian thistle (SASKR, Salsola kali); details: for visual injury: Table 1
# Description: as §1, §2, §3, §4
# [5] = tested on: common lambsquarters (CHEAL, Chenopodium album L.); details: for visual injury: Table 1
# Description: as §1, §2, §3, §4
# [6] = tested on: Italian ryegrass (LOLMU, Lolium multiflorum.); details: Table 4
# Description: as §1, §2, §3, §4
# [7] = tested on: spring rape (BRSNN, Brassica napus)
# Description: as §1, §2, §3, §4
# [8] = tested on: Canada thistle (CIRAR, Cirsium arvense); details: for visual injury: Table 1
# Description: as §1, §2, §3, §4
# [9] = tested on: large crabgrass (DIGSA, Digitaria sanguinalis); details: Table 4
# Description: as §1, §2, §3, §4
# [10] = tested on: wild buckwheat (POLCO, Polygonum convolvulus); details: for visual injury: Table 1
# Description: as §1, §2, §3, §4
smiles,measurement,setting,value
"N#CCOC(=O)c1nc(-c2ccc3cc[nH]c3c2F)c(F)c(N)c1Cl [Compound A, cyanomethyl 4-amino-3-chloro-5-fluoro-6-(7-fluoro-1H-indol-6-yl)pyridine-2-carboxylate]",visual injury Obs,"[1]; 7.5 g/ha, Table 5",91%
same,visual injury Obs,"[1]; 7.5 g/ha, Table 6",91%
same,visual injury Obs,"[1]; 10 g/ha, Table 5",83%
same,visual injury Obs,"[1]; 10 g/ha, Table 6",83%
same,visual injury,[2]; 7.5 g/ha,88%
same,visual injury Obs,"[2]; 7.5 g/ha, Table 2",88%
same,visual injury Obs,"[2]; 7.5 g/ha, Table 3",85%
same,visual injury Obs,"[2]; 7.5 g/ha, Table 7",85%
same,visual injury,[2]; 10 g/ha,90%
same,visual injury Obs,"[2]; 10 g/ha, Table 2",92%
same,visual injury Obs,"[2]; 10 g/ha, Table 3",90%
same,visual injury Obs,"[2]; 10 g/ha, Table 7",88%
same,visual injury Obs,"[3]; 7.5 g/ha, Table 4",68%
same,visual injury Obs,"[3]; 7.5 g/ha, Table 5",40%
same,visual injury Obs,"[3]; 7.5 g/ha, Table 6",40%
same,visual injury Obs,"[3]; 10 g/ha, Table 4",78%
same,visual injury Obs,"[3]; 10 g/ha, Table 5",48%
same,visual injury Obs,"[3]; 10 g/ha, Table 6",48%
same,visual injury,[4]; 7.5 g/ha,60%
same,visual injury Obs,"[4]; 7.5 g/ha, Table 2",45%
same,visual injury Obs,"[4]; 7.5 g/ha, Table 3",38%
same,visual injury Obs,"[4]; 7.5 g/ha, Table 8",55%
same,visual injury,[4]; 10 g/ha,63%
same,visual injury Obs,"[4]; 10 g/ha, Table 2",60%
same,visual injury Obs,"[4]; 10 g/ha, Table 3",63%
same,visual injury Obs,"[4]; 10 g/ha, Table 8",58%
same,visual injury Obs,"[4]; 15 g/ha, Table 8",65%
same,visual injury,[5]; 7.5 g/ha,88%
same,visual injury Obs,"[5]; 7.5 g/ha, Table 2",70%
same,visual injury Obs,"[5]; 7.5 g/ha, Table 3",60%
same,visual injury Obs,"[5]; 7.5 g/ha, Table 4",97%
same,visual injury Obs,"[5]; 7.5 g/ha, Table 7",70%
same,visual injury Obs,"[5]; 7.5 g/ha, Table 8",70%
same,visual injury,[5]; 10 g/ha,93%
same,visual injury Obs,"[5]; 10 g/ha, Table 2",83%
same,visual injury Obs,"[5]; 10 g/ha, Table 3",90%
same,visual injury Obs,"[5]; 10 g/ha, Table 4",93%
same,visual injury Obs,"[5]; 10 g/ha, Table 7",78%
same,visual injury Obs,"[5]; 10 g/ha, Table 8",78%
same,visual injury Obs,"[5]; 15 g/ha, Table 8",83%
same,visual injury Obs,[6]; 7.5 g/ha,0%
same,visual injury Obs,[6]; 10 g/ha,0%
same,visual injury Obs,"[7]; 7.5 g/ha, Table 2",55%
same,visual injury Obs,"[7]; 7.5 g/ha, Table 3",55%
same,visual injury Obs,"[7]; 7.5 g/ha, Table 4",73%
same,visual injury Obs,"[7]; 10 g/ha, Table 2",60%
same,visual injury Obs,"[7]; 10 g/ha, Table 3",70%
same,visual injury Obs,"[7]; 10 g/ha, Table 4",83%
same,visual injury,[8]; 7.5 g/ha,30%
same,visual injury Obs,"[8]; 7.5 g/ha, Table 3",10%
same,visual injury Obs,"[8]; 7.5 g/ha, Table 4",23%
same,visual injury Obs,"[8]; 7.5 g/ha, Table 5",25%
same,visual injury Obs,"[8]; 7.5 g/ha, Table 6",25%
same,visual injury Obs,"[8]; 7.5 g/ha, Table 7",18%
same,visual injury,[8]; 10 g/ha,40%
same,visual injury Obs,"[8]; 10 g/ha, Table 3",23%
same,visual injury Obs,"[8]; 10 g/ha, Table 4",20%
same,visual injury Obs,"[8]; 10 g/ha, Table 5",20%
same,visual injury Obs,"[8]; 10 g/ha, Table 6",20%
same,visual injury Obs,"[8]; 10 g/ha, Table 7",30%
same,visual injury Obs,[9]; 7.5 g/ha,45%
same,visual injury Obs,[9]; 10 g/ha,25%
same,visual injury,[10]; 7.5 g/ha,78%
same,visual injury Obs,"[10]; 7.5 g/ha, Table 2",70%
same,visual injury Obs,"[10]; 7.5 g/ha, Table 3",88%
same,visual injury Obs,"[10]; 7.5 g/ha, Table 5",68%
same,visual injury Obs,"[10]; 7.5 g/ha, Table 6",68%
same,visual injury Obs,"[10]; 7.5 g/ha, Table 7",60%
same,visual injury Obs,"[10]; 7.5 g/ha, Table 8",63%
same,visual injury,[10]; 10 g/ha,93%
same,visual injury Obs,"[10]; 10 g/ha, Table 2",78%
same,visual injury Obs,"[10]; 10 g/ha, Table 3",96%
same,visual injury Obs,"[10]; 10 g/ha, Table 5",70%
same,visual injury Obs,"[10]; 10 g/ha, Table 6",70%
same,visual injury Obs,"[10]; 10 g/ha, Table 7",70%
same,visual injury Obs,"[10]; 10 g/ha, Table 8",60%
same,visual injury Obs,"[10]; 15 g/ha, Table 8",63%
